Source: patent US20070082858A1, “Methods and compositions for the prevention of toxic side effects of aminoglycoside medications” (priority 2004, published 2007)
“Also recorded” adds a separate entry of the source.

Experiments:
[1] = test system: bullfrog saccular hair cells; test: GTTR uptake in bullfrog saccular explants with TRPV1 regulators; type: cell-based
Method: Bullfrogs (Rana catesbeiana) were anesthetized with 0.2% MS-222 and chilled before decapitation. The temporal bones were excised in cold oxygenated HEPES-buffered saline (HBS) containing 110 mM Na+; 2 mM K+; 4 mM Ca2+; 120 mM Cl−; 3 mM D-glucose, and 5 mM HEPES (pH=7.25; 220 mOsmols). Each saccule was isolated and the otolithic membrane removed by proteolytic digestion for 20 minutes in oxygenated 50 μg/ml subtilopeptidase BPN (Sigma) at room temperature. Saccular explants were then incubated in Wolf-Quimby culture medium (containing 1 mM Ca2+; Life Technologies) supplemented with 100 μg/ml ciprofloxacin in a 5% CO2 environment at 25° C. (Steyger et al. 1997; Steyger et al. 1998). Gentamicin-treated explants were incubated in the above culture media, supplemented with 300 μg/ml GT/GTTR.

MDCK cells = test: GTTR uptake into MDCK cells under TRPV1 agonists/antagonists, cation channel blockers, cations and pH (30-60 seconds, 20° C., FATX fixation, confocal imaging); settings: for GTTR uptake stimulated by TRPV1 agonists/antagonists: AND, SB366791 or I-RTX; for hydrolyzed TR penetration into the cytoplasm (control for toxicity or increased permeability): highest doses shown: 5×10^−7 M RTX
Description: MDCK cells were used as a model system to test regulation of GTTR uptake by conditions known to produce or modify a cation current through the TRPV1 channel. Conditions tested were varying extracellular calcium concentrations, pH, specific agonists, specific antagonists, and the non-specific cation channel blocker Ruthenium Red. In addition, we pre-mixed PIP2 with GTTR to determine whether that anionic phospholipid, known to bind gentamicin, would alter GTTR uptake. All these assays were done at room temperature (20° C.), for 30 or 60 seconds, and using doses of GTTR of 5 to 10 μg/ml, which are far below the typical therapeutic level of <300 μg/ml. Buffers used for treatment were as described for each experiment. Cells were quickly washed to replace culture medium with treatment buffer, treated as indicated, washed again after treatment, fixed immediately with 4% formaldehyde and 0.5% Triton X-100 (FATX), and washed prior to imaging.
Methods: Cells were seeded into 8-well coverglass chambers at 3000 cells/well and grown for 5 days.
Cells were washed three times with the buffer to be used in the particular experiment, treated with GTTR and experimental variable for 30 or 60 seconds at 20° C., precluding endocytosis. Following treatment, cells were rinsed three times with buffer, then fixed and delipidated with 4% formaldehyde plus 0.5% Triton X-100 (FATX) for 45 minutes. Following fixation, cells were rinsed with PBS (Invitrogen, CA) for at least 4-6 times, or until foaming in the suction pipette ceased. In contrast to previous experiments, no FBS was present in the treatment media, allowing for more rapid uptake of the antibiotic-based GTTR.
MDCK cells were washed with Hank's buffered salt solution (HBSS; Invitrogen, CA), then placed into buffers of varying potassium concentrations. HBSS was mixed with equi-osmolar KCl/HBSS to produce the required K^+ concentrations. Cells were treated with 1 μg/mL GTTR for 1 minute, then washed and fixed as described above.
Cells were washed with PBS (Invitrogen, CA), then placed into buffers containing varying concentrations of calcium, obtained by mixing HBSS with equimolar CaCl2, each at pH 7.3. Cells were treated with 5 μg/mL of GTTR for 30 seconds, then washed and fixed as above.
Cells were washed with saline, then treated with 5 μg/mL of GTTR in saline buffers of varying pH for 30 seconds, then washed and fixed as above. Sodium hydroxide and hydrochloric acid were used to alter pH. These experiments were performed in three different saline buffers: (i) PBS (no calcium), (ii) a mixture of […] for a final calcium concentration of 0.32 mM, and (iii) a mixture of three parts PBS to one part HBSS for a final calcium concentration of 0.97 mM.
Cells were washed three times with Ca^++-free saline (0.9% NaCl), then treated with 5 μg/mL GTTR and one of the following for 30 seconds: TRPV1 agonists (resiniferatoxin [RTX]; or anandamide [AND]; Alexis Biochemicals, San Diego, Calif.); or antagonists (iodo-RTX, or SB 366791; Tocris, Ellisville, Mo.). Cells were then washed in saline and fixed as above.
Cells were washed three times with Ca^++-free 0.9% NaCl, then treated with 5 μg/mL GTTR and one of the following for 30 seconds: 100 μM Ruthenium Red, 100 μM Ruthenium Red plus one of the TRPV1 agonists or antagonists described above; or lanthanum (La^+++) at 0.5 or 5 mM.

[2] = cited from earlier work
inner ear explants = test: GTTR uptake in explants of bullfrog and murine inner ears (Example 9); type: cell-based
Description: Deafness and nephrotoxicity are serious consequences of aminoglycoside (AG) therapy. As discussed above, in cultured kidney cells, the non-endocytotic component of fluorescently-labeled gentamicin (GTTR) uptake was regulated by TRPV1 channel agonists and antagonists (pH, Ca^++, RTX). This example discusses the influence of these modulators on GTTR uptake in explants of bullfrog and murine inner ears.

murine cochlear explants = test: GTTR uptake in murine cochlear explants with RTX; type: cell-based; settings: level of OHC nuclei

N.N.N.N.N.N.N.N.N.N.N.N.N.N.[Cl-].[Cl-].[Cl-].[Cl-].[Cl-].[Cl-].[O-2].[O-2].[Ru+3].[Ru+3].[Ru+4] [RR, Ruthenium Red]
GTTR uptake in saccular hair cells ([1]; Ruthenium Red): significantly reduced by Ruthenium Red | GTTR uptake in saccular hair cells ([1]; Ruthenium Red in explants co-treated with iodo-RTX): significantly reduced by Ruthenium Red | GTTR uptake (MDCK cells; 10 mM RR alone (Example 1)): took up less GTTR than controls | GTTR uptake stimulated by TRPV1 agonists/antagonists (MDCK cells; 10 mM RR plus RTX, AND effect not completely blocked (Example 1)): blocked GTTR increases stimulated by RTX, AND, SB366791, and I-RTX | GTTR uptake (MDCK cells; 10^−5 M RR alone (Example 11)): took up less GTTR than controls | GTTR uptake stimulated by TRPV1 agonists/antagonists (MDCK cells; 10^−5 M RR plus RTX, AND effect not completely blocked (Example 11)): blocked GTTR increases stimulated by RTX, AND, SB366791, and I-RTX

[H]/N=C(/N)N[C@H]1[C@H](O)[C@@H](O)[C@H](O[C@@H]2O[C@@H](C)[C@](O)(C=O)[C@H]2O[C@@H]2O[C@@H](CO)[C@H](O)[C@@H](O)[C@@H]2NC)[C@@H](N/C(N)=N\[H])[C@@H]1O [streptomycin]
incidence of vestibular impairment ([2]; 1 gram per day): 25% | patients displaying some vestibular impairment ([2]; 2 grams daily for 60 to 120 days): ~75%

[Gd+3] [Gd^+++, Gadolinium]
GTTR uptake (MDCK cells; 0.5, 5, or 50 mM Gd^+++ in HBSS pH 7.3, 30 seconds): serially decreased

COc1cccc(NC(=O)/C=C/c2ccc(Cl)cc2)c1 [SB366791]
GTTR uptake (MDCK cells; SB366791 10^−7 M to 10^−5 M, calcium-free saline pH 7.3): increased GTTR uptake significantly; also recorded: serially increased GTTR uptake

[Cl-].[K+] [K^+, KCl]
GTTR uptake (inner ear explants; potassium depolarization of explants): decreased GTTR uptake | GTTR uptake (MDCK cells; K^+ increased from 10 mM to 140 mM vs 5.8 mM, HBSS pH 7.3, 1 minute): clear and considerable decrease in GTTR uptake

CCCCC/C=C\C/C=C\C/C=C\C/C=C\CCCC(=O)NCCO [AND, anandamide]
GTTR uptake (MDCK cells; AND 10^−4 M, calcium-free saline pH 7.3): little, or no, increase over controls; also recorded: little or no increase over controls | GTTR uptake (MDCK cells; AND 10^−5 M, calcium-free saline pH 7.3 (Example 1: greater extent than 10^−6 M)): increased, although not to the level seen with RTX | GTTR uptake (MDCK cells; AND 10^−6 M, calcium-free saline pH 7.3): increased, although not to the level seen with RTX

[Ca+2].[Cl-].[Cl-] [calcium, calcium chloride]
GTTR uptake (inner ear explants; 0.16 mM Ca^++ compared to 0.0 mM Ca^++): greater GTTR uptake | GTTR uptake (MDCK cells; 0.16 mM Ca^++ vs no calcium added or 2.0 mM, pH 7.0, 1 μg/mL GTTR): higher | GTTR uptake (MDCK cells; 0.16 mM calcium vs no calcium added, saline pH 7.3): increased | GTTR uptake (MDCK cells; calcium concentrations above 0.16 mM, saline pH 7.3): GTTR uptake decreased | GTTR uptake (MDCK cells; calcium levels higher than 1.8 mM): almost completely blocking uptake | GTTR uptake (MDCK cells; physiological calcium levels (1.8 mM)): inhibitory

C=C(C)[C@]12C[C@@H](C)[C@@]34O[C@](Cc5ccccc5)(O[C@@H]1[C@@H]3C=C(COC(=O)Cc1ccc(O)c(OC)c1)C[C@]1(O)C(=O)C(C)=C[C@@H]41)O2 [RTX, resiniferatoxin]
GTTR uptake in the organ of Corti (murine cochlear explants; RTX plus Ca++): reduced further by RTX plus Ca++ | GTTR uptake in the organ of Corti (murine cochlear explants; RTX): reduced by RTX | GTTR uptake (inner ear explants; RTX at 0.16 mM Ca^++): enhanced GTTR uptake | GTTR uptake (inner ear explants; RTX at physiological Ca^++ levels): reduced GTTR uptake | GTTR uptake in saccular hair cells ([1]; RTX and Ca++ co-treatment): reduced by co-treatment with RTX, and Ca++ | GTTR uptake in saccular hair cells ([1]; RTX co-administered with GTTR): significantly reduced by RTX | GTTR uptake (MDCK cells; 5×10^−9 M RTX with 0.16 or 2.0 mM added calcium, pH 7.0): reduced GTTR uptake compared to controls at the same calcium levels | GTTR uptake (MDCK cells; 5×10^−9 M RTX, saline without added calcium, pH 7.0, 1 μg/mL GTTR 30 seconds): increased GTTR uptake | GTTR uptake (MDCK cells; RTX 5×10^−7 M, calcium-free saline pH 7.3, 5 μg/mL GTTR 30 seconds): little or no change over control | GTTR uptake (MDCK cells; RTX 5×10^−8 M, calcium-free saline pH 7.3, 5 μg/mL GTTR 30 seconds): increased, but to a lesser extent | GTTR uptake (MDCK cells; RTX 5×10^−9 M, calcium-free saline pH 7.3, 5 μg/mL GTTR 30 seconds): significantly increased | GTTR uptake (MDCK cells; RTX 10^−6 M, calcium-free saline pH 7.3): little or no change over control | GTTR uptake (MDCK cells; RTX 10^−7 M, calcium-free saline pH 7.3): increased to a lesser extent | GTTR uptake (MDCK cells; RTX 10^−8 M, calcium-free saline pH 7.3): significantly increased | GTTR uptake (MDCK cells; RTX with calcium concentrations as low as 0.08 mM): inhibited GTTR uptake | GTTR uptake (MDCK cells; combination of 2 mM Ca^++ and 5×10^−9 RTX): greatly reduced GTTR uptake | hydrolyzed TR penetration into the cytoplasm (control for toxicity or increased permeability) (MDCK cells; 10^−5 M I-RTX): Neither I-RTX or RTX induced TR penetration into the cytoplasm

CC(C)[C@@H]1NC(=O)[C@H](C)OC(=O)[C@@H](C(C)C)NC(=O)[C@@H](C(C)C)OC(=O)[C@H](C(C)C)NC(=O)[C@H](C)OC(=O)[C@@H](C(C)C)NC(=O)[C@@H](C(C)C)OC(=O)[C@H](C(C)C)NC(=O)[C@H](C)OC(=O)[C@@H](C(C)C)NC(=O)[C@@H](C(C)C)OC1=O [Valinomycin]
GTTR uptake (MDCK cells; 10 μg/mL valinomycin in HBSS pH 7.3, 5 μg/mL GTTR 30 seconds): decreased the uptake of GTTR compared to control cells

C=C(C)[C@]12C[C@@H](C)[C@@]34O[C@](Cc5ccccc5)(O[C@@H]1[C@@H]3C=C(COC(=O)Cc1cc(I)c(O)c(OC)c1)C[C@]1(O)C(=O)C(C)=C[C@@H]41)O2 [I-RTX]
GTTR uptake in saccular hair cells ([1]; iodo-RTX): significantly enhanced by iodo-RTX | GTTR uptake (MDCK cells; 10^−5 M I-RTX with 0.16 or 2.0 mM added calcium, pH 7.0): still caused increased GTTR uptake | GTTR uptake (MDCK cells; 10^−5 M I-RTX, saline without added calcium, pH 7.0, 1 μg/mL GTTR 30 seconds): increased GTTR uptake | GTTR fluorescence (MDCK cells; I-RTX 10^−5 M, calcium-free saline pH 7.3): well over the upper limit of the available 0 to 255 gray scale | hydrolyzed TR penetration into the cytoplasm (control for toxicity or increased permeability) (MDCK cells; 10^−5 M I-RTX): Neither I-RTX or RTX induced TR penetration into the cytoplasm | GTTR uptake, effect compared with SB366791 (MDCK cells; iodo-RTX dose series 10^−7 to 10^−5 M, calcium-free saline pH 7.3, listed as 1-RTX): dramatic; also recorded: more dramatic
